Experimental data as given in PubChem BioAssay AID588376 (Sanford-Burnham Center for Chemical Genomics, 2011).
Active and inactive are the calls of the source. The rule behind the calls is not given here.

biological target: Bcl-2-related protein A1 (Mus musculus) (UniProt Q07440); experiment: Bfl-1 counter-screen inhibitors, SAR follow-up, counter-screen for UBC13 polyubiquitination inhibitor project, biochemical, mouse Bfl-1, set 2 (AID 588376); conditions: Bfl-1 biochemical counterscreen, dose response
Sequence (Q07440 whole entry, looked up): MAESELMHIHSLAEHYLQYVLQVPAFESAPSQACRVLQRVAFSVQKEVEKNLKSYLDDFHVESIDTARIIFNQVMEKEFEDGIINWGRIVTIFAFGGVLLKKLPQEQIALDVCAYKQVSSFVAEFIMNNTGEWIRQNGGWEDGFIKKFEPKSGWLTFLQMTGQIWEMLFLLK

Which IC50 does the source give for CC1(C)Cc2c(sc(NC(=O)C(=O)N3CCCC3)c2C(N)=O)CO1 here?
Its IC50 is > 100 µM (inactive).

Cc1nc2cc(F)ccc2n1C1CCN(CC(=O)Nc2ccccc2)CC1 was tested. Which IC50 did it give?
The IC50 was > 100 µM (inactive).

Which IC50 does the source give for Cc1cccc(NC(=O)CN2CCC(n3cnc4cc(F)ccc43)CC2)c1C here?
Its IC50 is > 100 µM (inactive).

How did the IC50 turn out when O=C(CN1CCC(n2c(C(F)(F)F)nc3cc(F)ccc32)CC1)Nc1ccc2c(c1)OCO2 was run?
Its IC50 is > 100 µM (inactive).

How did the IC50 turn out when O=C(NCCCN1CCN(c2ccc(F)cc2)CC1)C1CCCN(c2ncnc3c2nc2n3CCCCC2)C1 (configuration not stated) was run?
The IC50 was > 100 µM (inactive).

With COc1ccc(OC)c(NC(=O)CN2CCC(n3cnc4cc(F)ccc43)CC2)c1 as the compound, how does the IC50 read?
The IC50 was > 100 µM (inactive).

Which IC50 does the source give for O=C(NCCCN1CCN(c2ccccc2)CC1)C1CCCN(c2ncnc3c2nc2n3CCCCC2)C1 (configuration not stated) here?
Its IC50 is > 100 µM (inactive).

For CC1(C)Cc2c(sc(NC(=O)C(=O)NCCN3CCOCC3)c2C(N)=O)CO1, which IC50 is on record?
Its IC50 is > 100 µM (inactive).

How did the IC50 turn out when CCOc1ccccc1NC(=O)CN1CCC(n2cnc3cc(F)ccc32)CC1 was run?
The IC50 was > 100 µM (inactive).

With CCOc1ccc(NC(=O)CN2CCC(n3cnc4cc(F)ccc43)CC2)cc1 as the compound, how does the IC50 read?
Its IC50 is > 100 µM (inactive).

For O=C(CN1CCC(n2cnc3cc(F)ccc32)CC1)Nc1ccccc1Br, which IC50 is on record?
Its IC50 is > 100 µM (inactive).

How did the IC50 turn out when O=C(CN1CCC(n2cnc3cc(F)ccc32)CC1)Nc1cccc(C(F)(F)F)c1 was run?
Its IC50 is > 100 µM (inactive).

How did the IC50 turn out when COc1ccc(OC)c(NC(=O)CN2CCC(n3c(C)nc4cc(F)ccc43)CC2)c1 was run?
Its IC50 is > 100 µM (inactive).

For O=C(C1CCN(c2ncnc3c2nc2n3CCCCC2)CC1)N1CCN(Cc2ccccc2)CC1, which IC50 is on record?
The IC50 was > 100 µM (inactive).

With O=C(C1CCN(c2ncnc3c2nc2n3CCCCC2)CC1)N1CCN(c2ccc(F)cc2)CC1 as the compound, how does the IC50 read?
Its IC50 is > 100 µM (inactive).

With Cc1nc2ccccc2n1C1CCN(CC(=O)Nc2ccccc2Oc2ccccc2)CC1 as the compound, how does the IC50 read?
The IC50 was > 100 µM (inactive).

For COC(=O)c1c(NC(=O)C(=O)NCC2CCCO2)sc2c1CC(C)(C)OC2 (configuration not stated), which IC50 is on record?
Its IC50 is > 100 µM (inactive).

Which IC50 does the source give for Cc1ccc(C)c(N2CCN(CCCNC(=O)C3CCCN(c4ncnc5c4nc4n5CCCCC4)C3)CC2)c1 (configuration not stated) here?
Its IC50 is > 100 µM (inactive).

CC1(C)Cc2c(sc(NC(=O)C(=O)NCC3CCCO3)c2C(N)=O)CO1 (configuration not stated) was tested. Which IC50 did it give?
The IC50 was > 100 µM (inactive).

For O=C(CN1CCC(n2cnc3cc(C(F)(F)F)ccc32)CC1)Nc1ccc2c(c1)OCCO2, which IC50 is on record?
Its IC50 is > 100 µM (inactive).

With Cc1cccc(N2CCN(CCCNC(=O)C3CCCN(c4ncnc5c4nc4n5CCCCC4)C3)CC2C)c1 (configuration not stated) as the compound, how does the IC50 read?
Its IC50 is > 100 µM (inactive).

With O=C(C1CCN(c2ncnc3c2nc2n3CCCCC2)CC1)N1CCN(c2ncccn2)CC1 as the compound, how does the IC50 read?
Its IC50 is > 100 µM (inactive).

For COc1ccc(NC(=O)CN2CCC(n3c(C)nc4cc(F)ccc43)CC2)c(OC)c1, which IC50 is on record?
The IC50 was > 100 µM (inactive).

How did the IC50 turn out when CC1(C)Cc2c(sc(NC(=O)C(=O)NCC3CCCO3)c2C(=O)O)CO1 (configuration not stated) was run?
The IC50 was > 100 µM (inactive).

With COc1ccccc1N1CCN(CCCNC(=O)C2CCCN(c3ncnc4c3nc3n4CCCCC3)C2)CC1 (configuration not stated) as the compound, how does the IC50 read?
Its IC50 is > 100 µM (inactive).

With O=C(c1ccco1)N1CCN(C(=O)C2CCN(c3ncnc4c3nc3n4CCCCC3)CC2)CC1 as the compound, how does the IC50 read?
The IC50 was > 100 µM (inactive).

With O=C(C1CCN(c2ncnc3c2nc2n3CCCCC2)CC1)N1CCN(c2ccccn2)CC1 as the compound, how does the IC50 read?
Its IC50 is > 100 µM (inactive).
